The values that follow come from patent US9499550B2 (BRISTOL-MYERS SQUIBB COMPANY, priority 2012, dated 2016).

Test [1] deals with HCV genotype 1a (H77 strain) replicon in HUH-7 cells. Description: HCV replicon luciferase reporter assay, genotype 1a. The class given is cell-based. The conditions noted are these: Hepatitis C virus, Huh-7, 72 h, HCV genotype 1a replicon luciferase assay, 3 days incubation, range class, read-out: LE_1a (EC50, range). The gist of the method:
(§1)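 Replicon inhibition for both genotypes was measured as Renilla luciferase signal (EnduRen, 7.5 μM final, 2 h) after 3-day, 37° C exposure of replicon-bearing HUH-7 cells in 4% FCS DMEM, 0.5% DMSO. The 1b construct carries S1179I; the 1a H77 construct carries P1496L and S2204I. Twenty-point, 3-fold dilutions were fitted four-parametrically for EC50, and CC50 was taken from multiplexed Cell Titer-Blue.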
(Replicon systems follow genome replication, usually without infectious particles.)

Test [2] relates to HCV genotype 1b (Con1) replicon in HUH-7 cells. Briefly: HCV replicon luciferase reporter assay, genotype 1b. In kind it is cell-based. The conditions noted are these: Hepatitis C virus, Huh-7, 72 h, HCV genotype 1b replicon luciferase assay, 3 days incubation, range class, read-out: LE_1b (EC50, range). The gist of the method: as §1

pEC50: −log10 of the molar value.

One may read the pEC50 as the EC50 on a negative log10 scale, so that one unit is a factor of ten. With `COCCOc1cc2c(Cl)cccc2c(O[C@@H]2C[C@H]3C(=O)N[C@]4(C(=O)NS(=O)(=O)C5(C)CC5)C[C@H]4/C=C\CC[C@H](C)C[C@@H](C)[C@H](NC(=O)OC(C)(C)C(F)(F)F)C(=O)N3C2)n1` [Compound 1113, 1,1,1-trifluoro-2-methylpropan-2-yl((2R,6S,7R,9S,13aS,14aR,16aS,Z)-2-((5-chloro-3-(2-methoxyethoxyl)isoquinolin-1-yl)oxy)-7,9-dimethyl-14a-(((1-methylcyclopropyl)sulfonyl)carbamoyl)-5,16-dioxo-1,2,3,5,6,7,8,9,10,11,13a,14,14a,15,16,16a-hexadecahydrocyclopropa[e]pyrrolo[1,2-a][1,4]diazacyclopentadecin-6-yl)carbamate], the pEC50 in test [1] and in test [2] was greater than 8.26 throughout.
Regarding `COCCOc1cc2c(Cl)cccc2c(O[C@@H]2C[C@H]3C(=O)N[C@]4(C(=O)NS(=O)(=O)C5(C)CC5)C[C@H]4/C=C\CC[C@H](C)C[C@@H](C)[C@H](NC(=O)OC(C)(C)C(C)(F)F)C(=O)N3C2)n1` [Compound 1115, 3,3-difluoro-2-methylbutan-2-yl((2R,6S,7R,9S,13aS,14aR,16aS,Z)-2-((5-chloro-3-(2-methoxyethoxyl)isoquinolin-1-yl)oxy)-7,9-dimethyl-14a-(((1-methylcyclopropyl)sulfonyl)carbamoyl)-5,16-dioxo-1,2,3,5,6,7,8,9,10,11,13a,14,14a,15,16,16a-hexadecahydrocyclopropa[e]pyrrolo[1,2-a][1,4]diazacyclopentadecin-6-yl)carbamate], the pEC50 in test [1] and in test [2] was greater than 8.26 throughout.
For `COCCOc1cc2c(Cl)cccc2c(O[C@@H]2C[C@H]3C(=O)N[C@]4(C(=O)NS(=O)(=O)C5(C)CC5)C[C@H]4/C=C\CC[C@@H](C)C[C@@H](C)[C@H](NC(=O)OC(C)(C)C(C)(F)F)C(=O)N3C2)n1` [Compound 1116, 3,3-difluoro-2-methylbutan-2-yl((2R,6S,7R,9R,13aS,14aR,16aS,Z)-2-((5-chloro-3-(2-methoxyethoxyl)isoquinolin-1-yl)oxy)-7,9-dimethyl-14a-(((1-methylcyclopropyl)sulfonyl)carbamoyl)-5,16-dioxo-1,2,3,5,6,7,8,9,10,11,13a,14,14a,15,16,16a-hexadecahydrocyclopropa[e]pyrrolo[1,2-a][1,4]diazacyclopentadecin-6-yl)carbamate], the pEC50 in test [1] and in test [2] was greater than 8.26 throughout.
As for `COCCOc1cc2c(Cl)cccc2c(O[C@@H]2C[C@H]3C(=O)N[C@]4(C(=O)NS(=O)(=O)C5(C)CC5)C[C@H]4/C=C\CC[C@H](C)C[C@@H](C)[C@H](NC(=O)OC(C)(C)C)C(=O)N3C2)n1` [Compound 1117, tert-butyl ((2R,6S,7R,9S,13aS,14aR,16aS,Z)-2-((5-chloro-3-(2-methoxyethoxyl)isoquinolin-1-yl)oxy)-7,9-dimethyl-14a-(((1-methylcyclopropyl)sulfonyl)carbamoyl)-5,16-dioxo-1,2,3,5,6,7,8,9,10,11,13a,14,14a,15,16,16a-hexadecahydrocyclopropa[e]pyrrolo[1,2-a][1,4]diazacyclopentadecin-6-yl)carbamate], the pEC50 in test [1] and in test [2] was greater than 8.26 each time.
Turning to `COCCOc1cc2c(Cl)cccc2c(O[C@@H]2C[C@H]3C(=O)N[C@]4(C(=O)NS(=O)(=O)C5(C)CC5)C[C@H]4/C=C\CC[C@@H](C)C[C@@H](C)[C@H](NC(=O)OC(C)(C)C)C(=O)N3C2)n1` [Compound 1118, tert-butyl ((2R,6S,7R,9R,13aS,14aR,16aS,Z)-2-((5-chloro-3-(2-methoxyethoxyl)isoquinolin-1-yl)oxy)-7,9-dimethyl-14a-(((1-methylcyclopropyl)sulfonyl)carbamoyl)-5,16-dioxo-1,2,3,5,6,7,8,9,10,11,13a,14,14a,15,16,16a-hexadecahydrocyclopropa[e]pyrrolo[1,2-a][1,4]diazacyclopentadecin-6-yl)carbamate], the pEC50 in test [1] and in test [2] was greater than 8.26 in each case.
As for `CC[C@@H]1C[C@@H](C)CC/C=C\[C@@H]2C[C@@]2(C(=O)NS(=O)(=O)C2(C)CC2)NC(=O)[C@@H]2C[C@@H](Oc3nc(OC)cc4cc(OC)ccc34)CN2C(=O)[C@H]1NC(=O)OC(C)(C)C(F)(F)F` [Compound 1119, 1,1,1-trifluoro-2-methylpropan-2-yl((2R,6S,7R,9S,13aS,14aR,16aS,Z)-2-((3,6-dimethoxyisoquinolin-1-yl)oxy)-7-ethyl-9-methyl-14a-(((1-methylcyclopropyl)sulfonyl)carbamoyl)-5,16-dioxo-1,2,3,5,6,7,8,9,10,11,13a,14,14a,15,16,16a-hexadecahydrocyclopropa[e]pyrrolo[1,2-a][1,4]diazacyclopentadecin-6-yl)carbamate], the pEC50 in test [1] and in test [2] was greater than 8.26 each time.
As for `CC[C@@H]1C[C@H](C)CC/C=C\[C@@H]2C[C@@]2(C(=O)NS(=O)(=O)C2(C)CC2)NC(=O)[C@@H]2C[C@@H](Oc3nc(OC)cc4cc(OC)ccc34)CN2C(=O)[C@H]1NC(=O)OC(C)(C)C(F)(F)F` [Compound 1120, 1,1,1-trifluoro-2-methylpropan-2-yl((2R,6S,7R,9R,13aS,14aR,16aS,Z)-2-((3,6-dimethoxyisoquinolin-1-yl)oxy)-7-ethyl-9-methyl-14a-(((1-methylcyclopropyl)sulfonyl)carbamoyl)-5,16-dioxo-1,2,3,5,6,7,8,9,10,11,13a,14,14a,15,16,16a-hexadecahydrocyclopropa[e]pyrrolo[1,2-a][1,4]diazacyclopentadecin-6-yl)carbamate], the pEC50 in test [1] and in test [2] was greater than 8.26 in each case.
On to `CC[C@@H]1C[C@@H](C)CC/C=C\[C@@H]2C[C@@]2(C(=O)NS(=O)(=O)C2(C)CC2)NC(=O)[C@@H]2C[C@@H](Oc3nc(OC)cc4cc(OC)ccc34)CN2C(=O)[C@H]1NC(=O)OC1(C(F)(F)F)COC1` [Compound 1121, 3-(trifluoromethyl)oxetan-3-yl((2R,6S,7R,9S,13aS,14aR,16aS,Z)-2-((3,6-dimethoxyisoquinolin-1-yl)oxy)-7-ethyl-9-methyl-14a-(((1-methylcyclopropyl)sulfonyl)carbamoyl)-5,16-dioxo-1,2,3,5,6,7,8,9,10,11,13a,14,14a,15,16,16a-hexadecahydrocyclopropa[e]pyrrolo[1,2-a][1,4]diazacyclopentadecin-6-yl)carbamate], for which the pEC50 in test [1] and in test [2] was greater than 8.26 each time.
For the compound `CC[C@@H]1C[C@H](C)CC/C=C\[C@@H]2C[C@@]2(C(=O)NS(=O)(=O)C2(C)CC2)NC(=O)[C@@H]2C[C@@H](Oc3nc(OC)cc4cc(OC)ccc34)CN2C(=O)[C@H]1NC(=O)OC1(C(F)(F)F)COC1` [Compound 1122, 3-(trifluoromethyl)oxetan-3-yl ((2R,6S,7R,9R,13aS,14aR,16aS,Z)-2-((3,6-dimethoxyisoquinolin-1-yl)oxy)-7-ethyl-9-methyl-14a-(((1-methylcyclopropyl)sulfonyl)carbamoyl)-5,16-dioxo-1,2,3,5,6,7,8,9,10,11,13a,14,14a,15,16,16a-hexadecahydrocyclopropa[e]pyrrolo[1,2-a][1,4]diazacyclopentadecin-6-yl)carbamate], the pEC50 in test [1] and in test [2] was greater than 8.26 in each case.
